The values below come from US20130084329A1, “COMPOSITIONS FOR EXTERNAL APPLICATION, CONTAINING ADENOSYLCOBALAMIN FOR IMPROVEMENT OF SKIN DISEASES” (HANALL BIOPHARMA CO., LTD., priority 2005, published 2013).

Several values for one entry are separate records, joined by “and”; a condition that tells them apart may be missing. Equal values may be shown once.

The subject of this test is CD4+ T cell (C57BL/6) co-cultured with dendritic cell (BALB/C). Description: Inhibition test of T-cell proliferation, 1 way mixed lymphocyte reaction (MLR), H3-thymidine incorporation. It is filed as cell-based, mouse. As to conditions: for % of inhibition = [cpm (untreated) - cpm(treated)] / cpm (untreated): T cell proliferation, from photo-nonexposed CPM. The text has this: It is typically known that the increase of CD4^+ T cells is observed in atopic dermatitis lesion, and cytokines secreted from CD4^+ T cells make the condition of atopic dermatitis worse (DirkJan Hijnen et al., J Invest Dermatol 125:1149-1155, 2005). Therefore, we tried to determine the therapeutic effectiveness of cobalamin derivatives for treatment of atopic dermatitis by examining the changes of T-cell proliferation before and after photolysis of cobalamin derivatives.
When the T cell separated from one mouse strain and the dendritic cell (DC, antigen presenting cell) separated from another mouse strain are mixed together, the immune response by the T cell occurs. This immune response is a tissue incompatibility reaction due to the difference of the genes of MHC molecules of the two strains.
In this experiment, the target cell (DC) derived from BALB/C strain and the CD4^+ T cell (the responder) derived from C57BL/6 (B6) strain are mixed and co-cultured to induce a 1 way MLR. In this process, several types of cobalamin derivatives (cyanocobalamin, hydroxocobalamin, methylcobalamin, adenosylcobalamin) are treated, and then the intensities of the immune response are measured by comparing the T cell proliferation for each of the cobalamin derivative-treated group.
1) Bone marrow derived dendritic cells were isolated from 8 weeks BALB/c mouse as follows.
2) The femur and tibiae were separated from a mouse, and then soaked in PBS. The muscle tissues were removed from them. Then, the bones were soaked in 70% EtOH for 2 minutes for sterilization, and then EtOH was washed off with PBS.
3) A needle of a 10 ml syringe filled with PBS was inserted into ends of the bones and then PBS was injected into the bones to isolate the bone marrow.
4) The obtained bone marrow was made into a single cell suspension by pipetting.
5) 1˜1.5×10^7 of leukocytes were isolated per one femur or one tibia.
6) Culture medium was prepared (RPMI-1640+Penicillin/Streptomycin, L-Glutamin, 2-MercaptoEtOH, 10% Fetal Bovine Serum, Recombinant mouse GM-CSF). 2×10^6 of BM leukocytes were plated onto 100 mm Petri dish with 10 ml of the culture medium. At this time, […] (in case of 20 ng/ml, 5×10^6 U/mg) of rmGM-CSF was added. (Day 0)
7) Day 3, 10 ml of culture medium (including 200 U/ml GM-CSF) was added.
8) Day 6, culture medium replacement: 10 ml of culture medium from the culture plate was taken, and then centrifuged. The obtained cells were released in a fresh medium containing GM-CSF 200 U/ml, and then they were put back into the original culture plate. Through this process, half of the entire culture medium could be changed to a new medium.
9) Day 8, culture medium replacement: Half of the culture medium was replaced in the same way as day 6.
10) Day 9, after collecting BM-DCs by pipetting carefully, and centrifuging at 300 g/RT/5 min, they were poured into 10 ml of fresh culture medium. The BM-DCs were plated on 100 mm tissue culture plate. 100 U/ml of rmGM-CSF and 1 μg/ml of LPS were added to the culture medium. The BM-DCs were fully maturated by culturing for an extra day.
1) The spleen was separated out from C57BL/6 mouse, and was ground by using the nylon mesh in PBS and then centrifuged at 300×g for 4 min.
2) The obtained cell pellet was treated with 5 ml of ACK RBC lysing solution for 5 minutes in RT, and then washed with PBS.
3) After resuspending the cells in 500 μl of MACs buffer (PBS+EDTA/BSA), the cells were stained with 50 μl of anti-CD4 microbead. Then, the CD4^+ T cell (1×10^7 cells) were separated from the cells according to the manual of MACS kit (Miltenyi Company).
1) The experiment for determining MLR response was designed to comprise control group, photo-exposed group, and photo-nonexposed group as follows. Each group was tested in triplicate according to concentration and substance on 3 wells. […]
On the technique in general: Dividing cells build labelled thymidine or BrdU into new DNA.

The mark [1] stands for this setting: 500 μM (highest concentration), 500 µM.
Setting [2] is: 10 μM (lowest concentration), 10 µM.

For `C/C1=C2/[N-][C@H]([C@H](CC(N)=O)[C@@]2(C)CCC(=O)NC[C@@H](C)OP(=O)([O-])O[C@H]2[C@@H](O)[C@@H](n3cnc4cc(C)c(C)cc43)O[C@@H]2CO)[C@]2(C)N=C(/C(C)=C3N=C(/C=C4N=C1[C@@H](CCC(N)=O)C\4(C)C)[C@@H](CCC(N)=O)[C@]\3(C)CC(N)=O)[C@@H](CCC(N)=O)[C@]2(C)CC(N)=O.[Co+3].[OH-]` [H-co, hydroxocobalamin], the “% of inhibition = [cpm (untreated) - cpm(treated)] / cpm (untreated)” value is 25.76% and 23.13% and 24.28% (30 μM); 37.0706% and 42.13% and 34.41% (100 μM); 67.35% and 75.19% and 70.9% under setting [1]. The “radioactivity (CPM), single wells of triplicate” value (“radioactivity (CPM)” for short) is, setting by setting: (photo-exposed group (under the light for 1 hr before treatment), 3 μM, listed as Photo-H-co) 52932 CPM and 46313 CPM and 40358 CPM; (photo-exposed group (under the light for 1 hr before treatment), 10 μM, listed as Photo-H-co) 42615 CPM and 39452 CPM and 33765 CPM; (photo-exposed group (under the light for 1 hr before treatment), 30 μM, listed as Photo-H-co) 34824 CPM and 37105 CPM and 32225 CPM; (photo-exposed group (under the light for 1 hr before treatment), 100 μM, listed as Photo-H-co) 37189 CPM and 23765 CPM and 30994 CPM; (photo-nonexposed group, 10 μm) 41967 CPM and 33493 CPM and 38243 CPM; (photo-nonexposed group, 30 μm) 33669 CPM and 34662 CPM and 34340 CPM. Further, the “radioactivity (CPM)” value is, setting by setting: (photo-nonexposed group, 100 μm) 28541 CPM and 26247 CPM and 29747 CPM; (photo-nonexposed group, 500 μm) 14806 CPM and 11254 CPM and 13198 CPM.

As to `C/C1=C2/[N-][C@H]([C@H](CC(N)=O)[C@@]2(C)CCC(=O)NC[C@@H](C)OP(=O)([O-])O[C@H]2[C@@H](O)[C@@H](n3cnc4cc(C)c(C)cc43)O[C@@H]2CO)[C@]2(C)N=C(/C(C)=C3N=C(/C=C4N=C1[C@@H](CCC(N)=O)C\4(C)C)[C@@H](CCC(N)=O)[C@]\3(C)CC(N)=O)[C@@H](CCC(N)=O)[C@]2(C)CC(N)=O.[CH2-][C@H]1O[C@@H](n2cnc3c(N)ncnc32)[C@H](O)[C@@H]1O.[Co]` [A-co, adenosylcobalamin], the “% of inhibition = [cpm (untreated) - cpm(treated)] / cpm (untreated)” value under setting [2] is 57.9% and 58.03% and 60.21%; the “% of inhibition = [cpm (untreated) - cpm(treated)] / cpm (untreated)” value (30 μM) is 66.99% and 77.79% and 83.85%; the “% of inhibition = [cpm (untreated) - cpm(treated)] / cpm (untreated)” value (100 μM) is 89.85% and 91.31% and 95.18%; the “% of inhibition = [cpm (untreated) - cpm(treated)] / cpm (untreated)” value under setting [1] is 96.51% and 97.48% and 98.07%. For the same molecule, the “radioactivity (CPM)” value is 26305 CPM and 14772 CPM and 24306 CPM (photo-exposed group (under the light for 1 hr before treatment), 3 μM, listed as Photo-A-co); 2225 CPM and 3123 CPM and 1922 CPM (photo-exposed group (under the light for 1 hr before treatment), 10 μM, listed as Photo-A-co); 997 CPM and 1091 CPM and 1391 CPM (photo-exposed group (under the light for 1 hr before treatment), 30 μM, listed as Photo-A-co); 696 CPM and 1259 CPM and 1333 CPM (photo-exposed group (under the light for 1 hr before treatment), 100 μM, listed as Photo-A-co); 19094 CPM and 19033 CPM and 18047 CPM (photo-nonexposed group, 10 μm); 14064 CPM and 10071 CPM and 7326 CPM (photo-nonexposed group, 30 μm). In addition, the “radioactivity (CPM)” value (photo-nonexposed group, 500 μm) is 1585 CPM and 1141 CPM and 875 CPM.

Take `C/C1=C2/[N-][C@H]([C@H](CC(N)=O)[C@@]2(C)CCC(=O)NC[C@H](C)OP(=O)([O-])O[C@H]2[C@@H](O)[C@@H](n3cnc4cc(C)c(C)cc43)O[C@@H]2CO)[C@]2(C)N=C(/C(C)=C3N=C(/C=C4N=C1[C@@H](CCC(N)=O)C\4(C)C)[C@@H](CCC(N)=O)[C@]\3(C)CC(N)=O)[C@@H](CCC(N)=O)[C@]2(C)CC(N)=O.[CH3-].[Co+3]` [M-co, methylcobalamin]: under setting [1], the “% of inhibition = [cpm (untreated) - cpm(treated)] / cpm (untreated)” value is 49.98% and 36.23% and 45.1184%. The “radioactivity (CPM)” value is, setting by setting: (photo-exposed group (under the light for 1 hr before treatment), 3 μM, listed as Photo-M-co) 33467 CPM and 32885 CPM and 50368 CPM; (photo-exposed group (under the light for 1 hr before treatment), 10 μM, listed as Photo-M-co) 42973 CPM and 43693 CPM and 41162 CPM; (photo-exposed group (under the light for 1 hr before treatment), 30 μM, listed as Photo-M-co) 18844 CPM and 28639 CPM and 29522 CPM; (photo-nonexposed group, 10 μm) 37594 CPM and 43624 CPM and 44951 CPM; (photo-nonexposed group, 30 μm) 36641 CPM and 28896 CPM and 40298 CPM; (photo-nonexposed group, 100 μm) 37066 CPM and 30678 CPM and 39514 CPM. Also, the “radioactivity (CPM)” value (photo-nonexposed group, 500 μm) is 22687 CPM and 28924 CPM and 24891 CPM.

Regarding cyanocobalamin [C-co], the “% of inhibition = [cpm (untreated) - cpm(treated)] / cpm (untreated)” value under setting [2] was 4.28% and 11.95% and 9.071%. In addition, the “radioactivity (CPM)” value by setting is: (photo-exposed group (under the light for 1 hr before treatment), 3 μM, listed as Photo-C-co) 41161 CPM and 57338 CPM and 56253 CPM; (photo-exposed group (under the light for 1 hr before treatment), 10 μM, listed as Photo-C-co) 39141 CPM and 36381 CPM and 39492 CPM; (photo-exposed group (under the light for 1 hr before treatment), 30 μM, listed as Photo-C-co) 38702 CPM and 34451 CPM and 34078 CPM; (photo-exposed group (under the light for 1 hr before treatment), 100 μM, listed as Photo-C-co) 50511 CPM and 27692 CPM and 30567 CPM; (photo-nonexposed group, 10 μm) 43413 CPM and 39935 CPM and 41240 CPM; (photo-nonexposed group, 30 μm) 42882 CPM and 30722 CPM and 40187 CPM. Besides, the “radioactivity (CPM)” value was 41663 CPM and 48408 CPM and 39928 CPM (photo-nonexposed group, 100 μm); 36303 CPM and 40107 CPM (photo-nonexposed group, 500 μm).
